Measurements from patent US20230126361A1, “METHODS OF CONTROLLING OR PREVENTING INFESTATION OF PLANTS BY THE PHYTOPATHOGENIC MICROORGANISM CORYNESPORA CASSIICOLA, […] AND/OR […]” (SYNGENTA CROP PROTECTION AG, priority 2020, published 2023).

Assays:
Assay type in all cases: cell-based
Details in all cases: PDB, 24° C., 3-4 days, 620 nm
Cercospora sojina = Cercospora sojina (frogeye leaf spot) liquid culture growth inhibition
Method: (§1) Conidia of the fungus from cryogenic storage were directly mixed into nutrient broth (PDB potato dextrose broth). A DMSO solution of the test compounds was placed into a microtiter plate (96-well format) and the nutrient broth containing the fungal spores was added to it. The test plates were incubated at 24° C. and the inhibition of growth was determined photometrically after 3-4 days at 620 nm.

Cercospora kikuchii = Cercospora kikuchii (leaf blight) liquid culture growth inhibition
Method: as §1

Corynespora cassiicola = Corynespora cassiicola (target leaf spot) liquid culture growth inhibition
Method: as §1, with “growth (% control of Corynespora cassiicola)” for “growth”, “nm. The activity of a compound is derived by comparing the inhibition of growth in the treated test solution to the growth in the untreated check. […]” for “nm.”

Cc1nc2c(F)c(F)ccc2cc1Oc1cccc(F)c1C(C)(C)O [2-[2-(7,8-difluoro-2-methylquinolin-3-yloxy)-6-fluorophenyl]propan-2-ol]
% control of Cercospora sojina (Cercospora sojina; 0.25 ppm): at least 20%
% control of Cercospora sojina (Cercospora sojina; 0.74 ppm): at least 20%
% control of Cercospora sojina (Cercospora sojina; 2.2 ppm): at least 50%
% control of Cercospora sojina (Cercospora sojina; 6.7 ppm): at least 50%
% control (Example 3: Cercospora kikuchii) (Cercospora kikuchii; 0.74 ppm): at least 20%
% control of Cercospora kikuchii (Cercospora kikuchii; 2.2 ppm): at least 50%
% control of Cercospora kikuchii (Cercospora kikuchii; 6.7 ppm): at least 50%
% control of Corynespora cassiicola (Corynespora cassiicola; 0.027 ppm): at least 20%
% control of Corynespora cassiicola (Corynespora cassiicola; 0.25 ppm): at least 20%
% control of Corynespora cassiicola (Corynespora cassiicola; 0.74 ppm): at least 50%
% control of Corynespora cassiicola (Corynespora cassiicola; 2.2 ppm): at least 70%
% control of Corynespora cassiicola (Corynespora cassiicola; 6.7 ppm): at least 90%
